Molecular target: T1, Human TRPV3 (Homo sapiens, UniProt Q8NET8)
T1 construct: expressed in transfected cells; host or cells: CHO cells (G-418 selection)
T1 sequence (Q8NET8 1-790): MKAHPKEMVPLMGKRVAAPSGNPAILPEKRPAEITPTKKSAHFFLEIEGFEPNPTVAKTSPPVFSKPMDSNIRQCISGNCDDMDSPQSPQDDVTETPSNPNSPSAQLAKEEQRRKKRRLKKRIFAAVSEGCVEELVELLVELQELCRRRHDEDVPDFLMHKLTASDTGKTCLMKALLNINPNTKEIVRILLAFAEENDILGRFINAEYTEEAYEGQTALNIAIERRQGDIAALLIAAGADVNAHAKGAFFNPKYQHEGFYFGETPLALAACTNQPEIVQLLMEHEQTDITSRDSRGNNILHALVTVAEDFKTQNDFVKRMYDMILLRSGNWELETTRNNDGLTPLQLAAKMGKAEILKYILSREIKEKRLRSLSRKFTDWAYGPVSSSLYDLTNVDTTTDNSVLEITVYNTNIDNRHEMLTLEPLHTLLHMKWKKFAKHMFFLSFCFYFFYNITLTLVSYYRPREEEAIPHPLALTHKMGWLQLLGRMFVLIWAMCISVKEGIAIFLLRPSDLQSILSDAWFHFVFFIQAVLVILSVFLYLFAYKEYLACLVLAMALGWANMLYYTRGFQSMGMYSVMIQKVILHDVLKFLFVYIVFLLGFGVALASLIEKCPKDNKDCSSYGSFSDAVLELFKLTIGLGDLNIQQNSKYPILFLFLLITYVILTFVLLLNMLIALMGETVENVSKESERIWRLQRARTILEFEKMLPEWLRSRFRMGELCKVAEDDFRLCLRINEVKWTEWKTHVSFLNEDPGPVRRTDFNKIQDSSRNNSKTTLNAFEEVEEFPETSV
Test: Screening for TRPV3 antagonist using the 45Calcium uptake assay (inhibition of 2-APB induced cellular uptake of radioactive calcium)
Type: cell-based
Conditions: human TRPV3 expressing CHO cells, 2-APB 500 μM; for inhibition at 1 µM / Percentage inhibition at 1.0 μM: 1.0 μM test compound; for inhibition at 1 µM: read-out: Percentage inhibition at 1.0 μM; for inhibition at 10 µM / Percentage inhibition at 10.0 μM: 10.0 μM test compound; for inhibition at 10 µM: read-out: Percentage inhibition at 10.0 μM; for IC50: class symbols
Procedure, shortened: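 CHO cells stably expressing human TRPV3, preincubated 10 min with test compound, then 2-APB (500 μM final) plus 5 μCi/ml 45Ca2+ for 4 min in DMEM/F-12 with 1.8 mM CaCl2; 0.5% DMSO final. Lysate radioactivity by scintillation counting. IC50 by nonlinear regression of % maximal response; % inhibition at 1.0 and 10.0 μM.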

Structure (SMILES) | inhibition at 1 µM | inhibition at 10 µM | IC50 | Percentage inhibition at 1.0 μM | Percentage inhibition at 10.0 μM
COc1cccc(/C=C/c2nc3sccn3c(=O)c2-c2ccc(N(C)C)cc2)c1OCC(C)C [Example 41, 6-(4-Dimethylaminophenyl)-7-[(E)-2-(2-isobutoxy-3-methoxyphenyl)-1-ethenyl]-5H-[1,3]thiazolo[3,2-a]pyrimidin-5-one] | 75.5% | 84.5% | 250 to 500 nM |  | 
N#Cc1ccc(-c2c(/C=C/c3cccnc3)nc3sccn3c2=O)cc1 [Example 23, 4-{5-Oxo-7-[(E)-2-(3-pyridyl)-1-ethenyl]-5H-[1,3]thiazolo[3,2-a]pyrimidin-6-yl}-benzonitrile] | 15.4% | 1.2% |  |  | 
COc1cccc(/C=C/c2nc3sc4ccccc4n3c(=O)c2-c2ccc(C#N)cc2)c1OCCC(C)C [Example 88, 4-{2-[(E)-2-[2-(3-Methylbutoxy-3-methoxy]phenyl}-1-ethenyl]-4-oxo-4H-benzo[4,5]-[1,3]thiazolo-[3,2]pyrimidin-3-yl)benzonitrile] |  |  |  | 32.87% | 51.88%
COc1cccc(/C=C/c2nc3sc4ccccc4n3c(=O)c2-c2ccc(C(F)(F)F)cc2)c1OCC1CC1 [Example 91, 2-{(E)-2-[(2-Cyclopropylmethoxy)-3-methoxyphenyl]-1-ethenyl}-3-(4-trifluoromethyl-phenyl)-4H-benzo[4,5][1,3]thiazolo-[3,2-a]pyrimidin-4-one] |  |  |  | 4.98% | 19.85%
COc1cccc(/C=C/c2nc3sccn3c(=O)c2-c2ccc(C#N)cc2)c1OCC1CCCCC1 [Example 19, 4-{7-[(E)-2-(2-Cyclohexylmethoxy-3-methoxy)phenyl-1-ethenyl]-5-oxo-5H-[1,3]-thiazolo[3,2-a]pyrimidin-6-yl}benzonitrile] | 74.6% | 88.4% | 250 to 500 nM |  | 
COc1cccc(/C=C/c2nc3sccn3c(=O)c2-c2ccc(C#N)cc2)c1OCCCC#N [Example 22, 4-{7-[(E)-2-{2-(3-Cyanopropoxy)-3-(methoxyphenyl)-1-ethenyl]}-5-oxo-5H-[1,3]-thiazolo[3,2-a]pyrimidin-6-yl}benzonitrile] |  |  |  | 16.1% | 24.5%
O=c1c(-c2ccc(OC(F)(F)F)cc2)c(/C=C/c2cccc(F)c2OCC2CC2)nc2sccn12 [Example 49, 7-[(E)-2-(2-Cyclopropylmethoxy-3-fluorophenyl)-1-ethenyl]-6-[4-(trifluoromethoxy)-phenyl]-5H-[1,3]thiazolo[3,2-a]pyrimidin-5-one] | 41.3% | 77.3% |  |  | 
COc1cccc(/C=C/c2nc3sccn3c(=O)c2-c2ccc(OCC(F)(F)F)cc2)c1OCC1CC1 [Example 45, 7-[(E)-2-(2-Cyclopropylmethoxy-3-methoxyphenyl)-1-ethenyl]-6-(4-(2,2,2-trifluoroethoxy)phenyl]-5H-[1,3]thiazolo[3,2-a]pyrimidin-5-one] | 30.7% | 77.5% |  |  | 

More lines, main results first:

inhibition at 1 µM | inhibition at 10 µM | Structure (SMILES) | IC50 | Percentage inhibition at 1.0 μM | Percentage inhibition at 10.0 μM
24.8% | 67.7% | COCCOc1c(/C=C/c2nc3sc4ccccc4n3c(=O)c2-c2ccc(OC(F)(F)F)cc2)cccc1OC [Example 96, 2-{(E)-2-[3-Methoxy-2-(2-methoxyethoxy)phenyl]-1-ethenyl}-3-(4-trifluoromethoxy-phenyl)-4H-benzo[4,5][1,3]thiazolo-[3,2-a]pyrimidin-4-one] |  |  | 
51.5% | 91.5% | COc1cccc(/C=C/c2nc3sccn3c(=O)c2-c2ccc(OC(F)(F)F)cc2)c1O [Example 69, 7-[(E)-2-(2-Hydroxy-3-methoxyphenyl)-1-ethenyl]-6-[4-(trifluoromethoxy)phenyl]-5H-[1,3]thiazolo[3,2-a]pyrimidin-5-one] |  |  | 
